Results reported in ChEMBL document CHEMBL1137189, “Syntheses and anti-MRSA activities of the C3 analogs of mansonone F, a potent anti-bacterial sesquiterpenoid: insights into its structural requirements for anti-MRSA activity” (2004).
In brackets after ≈: the same amount, converted by molar mass.

What follows are compounds tested on Staphylococcus aureus (assay: Minimum inhibitory concentration against methicillin-resistant Staphylococcus aureus).
Type: functional

`CC1=COc2c(C)ccc3c(C)ccc1c23` and `CC1=COc2c(C)cc([N+](=O)[O-])c3c(C)ccc1c23` cannot be ordered by MIC50: greater than 32 µg/mL for the first, greater than 32 µg/mL for the second.

Going from `CC1=C2OC=C(C#N)c3ccc(C)c(c32)C(=O)C1=O` to `C=CC1=COC2=C(C)C(=O)C(=O)c3c(C)ccc1c32`, the MIC50 rises from 8 µg/mL (≈ 31.8 µM) to greater than 32 µg/mL.

Compared with `CCCCC1=COC2=C(C)C(=O)C(=O)c3c(C)ccc1c32`, `CCC1=COC2=C(C)C(=O)C(=O)c3c(C)ccc1c32` is 2-fold lower in MIC50: 8 µg/mL (≈ 28.3 µM) for the first, 4 µg/mL (≈ 15.7 µM) for the second.

Compared with `CC1=C2OCC(CC(=O)O)c3ccc(C)c(c32)C(=O)C1=O` (configuration not stated), `CCOC(=O)CC1COC2=C(C)C(=O)C(=O)c3c(C)ccc1c32` (configuration not stated) is lower in MIC50: greater than 32 µg/mL for the first, 16 µg/mL (≈ 50.9 µM) for the second.

Going from `CC1=C2OC=C(C(F)(F)F)c3ccc(C)c(c32)C(=O)C1=O` to `CC1=C2OC=C(CCO)c3ccc(C)c(c32)C(=O)C1=O`, the MIC50 rises from 16 µg/mL (≈ 54.4 µM) to greater than 32 µg/mL.

`CC1=C2OCC(C)(O)c3ccc(C)c(c32)C(=O)C1=O` (configuration not stated) and `CCC1(O)COC2=C(C)C(=O)C(=O)c3c(C)ccc1c32` (configuration not stated) are the same in MIC50: 16 µg/mL (≈ 61.9 µM) for the first, 16 µg/mL (≈ 58.8 µM) for the second.

Going from `CN[C@H](CC(C)C)C(=O)N[C@H]1C(=O)N[C@@H](CC(N)=O)C(=O)N[C@H]2C(=O)N[C@H]3C(=O)N[C@H](C(=O)N[C@H](C(=O)O)c4cc(O)cc(O)c4-c4cc3ccc4O)[C@H](O)c3ccc(c(Cl)c3)Oc3cc2cc(c3O[C@@H]2O[C@H](CO)[C@@H](O)[C@H](O)[C@H]2O[C@H]2C[C@](C)(N)[C@H](O)[C@H](C)O2)Oc2ccc(cc2Cl)[C@H]1O` [VANCOMYCIN] to `CC1=C2OC=C(C(C)C)c3ccc(C)c(c32)C(=O)C1=O`, the MIC50 rises from 2 µg/mL (≈ 1.38 µM) to 4 µg/mL (≈ 14.9 µM) (2-fold).

Compared with `CCC1COC2=C(C)C(=O)C(=O)c3c(C)ccc1c32` (configuration not stated), `CC1=C2OCC(C)c3ccc(C)c(c32)C(=O)C1=O` (configuration not stated) [MANSONONE E] is 4-fold lower in MIC50: 32 µg/mL (≈ 125 µM) for the first, 8 µg/mL (≈ 33 µM) for the second.

Going from `COC1=C(C)C(=O)C(=O)c2c(C)cccc21` to `CC1=C2OC=Cc3ccc(C)c(c32)C(=O)C1=O`, the MIC50 falls from greater than 32 µg/mL to 8 µg/mL (≈ 35.4 µM).

`CC1=C2OCC(Cl)(C(F)(F)F)c3ccc(C)c(c32)C(=O)C1=O` (configuration not stated) and `CC1=C2OCCc3ccc(C)c(c32)C(=O)C1=O` are the same in MIC50: 16 µg/mL (≈ 48.4 µM) for the first, 16 µg/mL (≈ 70.1 µM) for the second.

With `COC1=CC(=O)C(=O)C=C1C` the MIC50 was greater than 32 µg/mL.

`CC1=COc2c(C)ccc3c(C)ccc1c23` and `CC1=COc2c(C)cc([N+](=O)[O-])c3c(C)ccc1c23` cannot be ordered by MIC90: greater than 32 µg/mL for the first, greater than 32 µg/mL for the second.

Compared with `CC1=C2OC=C(C#N)c3ccc(C)c(c32)C(=O)C1=O`, `C=CC1=COC2=C(C)C(=O)C(=O)c3c(C)ccc1c32` is higher in MIC90: 16 µg/mL (≈ 63.7 µM) for the first, greater than 32 µg/mL for the second.

Going from `CCCCC1=COC2=C(C)C(=O)C(=O)c3c(C)ccc1c32` to `CCC1=COC2=C(C)C(=O)C(=O)c3c(C)ccc1c32`, the MIC90 falls from 8 µg/mL (≈ 28.3 µM) to 4 µg/mL (≈ 15.7 µM) (2-fold).

First: CC1=C2OCC(CC(=O)O)c3ccc(C)c(c32)C(=O)C1=O (configuration not stated)
Second: CCOC(=O)CC1COC2=C(C)C(=O)C(=O)c3c(C)ccc1c32 (configuration not stated)
The MIC90 of the first is higher: greater than 32 µg/mL for the first, 32 µg/mL (≈ 102 µM) for the second.

`CC1=C2OC=C(C(F)(F)F)c3ccc(C)c(c32)C(=O)C1=O` and `CC1=C2OC=C(CCO)c3ccc(C)c(c32)C(=O)C1=O` cannot be ordered by MIC90: greater than 32 µg/mL for the first, greater than 32 µg/mL for the second.

Going from `CC1=C2OCC(C)(O)c3ccc(C)c(c32)C(=O)C1=O` (configuration not stated) to `CCC1(O)COC2=C(C)C(=O)C(=O)c3c(C)ccc1c32` (configuration not stated), the MIC90 falls from greater than 32 µg/mL to 16 µg/mL (≈ 58.8 µM).

Compared with `CN[C@H](CC(C)C)C(=O)N[C@H]1C(=O)N[C@@H](CC(N)=O)C(=O)N[C@H]2C(=O)N[C@H]3C(=O)N[C@H](C(=O)N[C@H](C(=O)O)c4cc(O)cc(O)c4-c4cc3ccc4O)[C@H](O)c3ccc(c(Cl)c3)Oc3cc2cc(c3O[C@@H]2O[C@H](CO)[C@@H](O)[C@H](O)[C@H]2O[C@H]2C[C@](C)(N)[C@H](O)[C@H](C)O2)Oc2ccc(cc2Cl)[C@H]1O` [VANCOMYCIN], `CC1=C2OC=C(C(C)C)c3ccc(C)c(c32)C(=O)C1=O` is 2-fold higher in MIC90: 2 µg/mL (≈ 1.38 µM) for the first, 4 µg/mL (≈ 14.9 µM) for the second.

Going from `CCC1COC2=C(C)C(=O)C(=O)c3c(C)ccc1c32` (configuration not stated) to `CC1=C2OCC(C)c3ccc(C)c(c32)C(=O)C1=O` (configuration not stated) [MANSONONE E], the MIC90 falls from 32 µg/mL (≈ 125 µM) to 16 µg/mL (≈ 66 µM) (2-fold).

Going from `COC1=C(C)C(=O)C(=O)c2c(C)cccc21` to `CC1=C2OC=Cc3ccc(C)c(c32)C(=O)C1=O`, the MIC90 falls from greater than 32 µg/mL to 8 µg/mL (≈ 35.4 µM).

`CC1=C2OCC(Cl)(C(F)(F)F)c3ccc(C)c(c32)C(=O)C1=O` (configuration not stated) and `CC1=C2OCCc3ccc(C)c(c32)C(=O)C1=O` are the same in MIC90: 16 µg/mL (≈ 48.4 µM) for the first, 16 µg/mL (≈ 70.1 µM) for the second.

`COC1=CC(=O)C(=O)C=C1C` was tested, and the MIC90 was greater than 32 µg/mL.
